According to patent publication US20240392343A1, “METHODS TO SCREEN YEAST TO IDENTIFY XENOBIOTICS THAT TARGET PESTS, PATHOGENS AND PARASITES” (The Governing Council of the University of Toronto, priority 2023, published 2024):
“Also recorded” adds a separate entry of the source.

Legend:
M. incognita CYP4731A3 = assay: CYPce assay: yeast-based M. incognita CYP expression screen and dose-response; assay type: cell-based, Meloidogyne incognita; conditions: 19 M. incognita CYP-expressing yeast strains vs empty vector, 50 μM in screen
From the text: (§1) Each data point corresponds to an individual yeast strain expressing a unique M. incognita CYP enzyme. The data point above the dotted line has a p-value <0.01, and corresponds to the strain expressing M. incognita CYP4731A3. […] Unmodified sel-A and metabolites M2 and M3 are indicated. […] AUC is the area under the curve for M2 and M3 combined, calculated at 260 nm. Error bars are SEM. The p-value was obtained from an unpaired one-tailed Student's t-test comparing the means of empty vector control and CYP4731A3 expressing yeast. M1 was not detectable.
(§2) Each data point corresponds to an individual yeast strain expressing a unique M. incognita P450 enzyme. The data point above the dotted line has a p-value <0.01 and corresponds to the strain expressing M. incognita CYP4731A3. […] Viability relative to untreated controls is indicated by the grey-coded scale. […] Peaks corresponding to the unmodified cyproside-3 and the three cyproside-3 metabolites visible using the HPLC-DAD system (M1, M2 and M3) are indicated. […] AUC is the area under the curve, error bars indicate SEM. […]
With that single strain, a library of small molecules are screened for those that can be bioconverted by the heterologously-expressed enzyme into a product that kills the cells expressing the enzyme. As set out herein, the growth of cells was measured, for example, by a variety of means, including optical density. […]

Mi-CYP4731A3 = assay: HPLC analysis of lysates of yeast expressing CYP4731A3; assay type: in vitro ADME, Meloidogyne incognita; conditions: lysates of yeast treated with 100 μM compound
From the text: as §1
as §2, with “SEM. The p-values were obtained from unpaired two-tailed Student's t-tests comparing the means of the empty vector control and CYP4731A3 expressing yeast.” for “SEM.”

CYP-35C1 = assay type: in vitro ADME; conditions: C. elegans
From the text: (§3) Viability relative to untreated controls is indicated by the gray coded scale. […] The p-values were obtained from unpaired two-tailed Student's t-tests comparing the means of the empty vector control and CYP-35C1 expressing yeast.
FIGS. 6A-C show mass spectrometry (MS) data for metabolite M1-M3 HPLC fractions and untreated control fractions, as well as MS/MS fragmentation data for selected masses. Structures of γ-glutamylcysteine (γ-Glu-Cys) (A), glutathione (B), and cysteine (C) conjugates of a selectivin-A (sel-A) electrophilic sulfoxide metabolite are shown, along with fragmentations that produce masses found in the MS/MS plots. […] S-oxidation produces an electrophilic sulfoxide metabolite that reacts with glutathione (GSH) either spontaneously or via glutathione-S-transferase (GST), and is likely further processed to 7-Glu-Cys and cysteine conjugates via phytochelatin synthase (PCS) and 7-glutamyl transferase (GGT), respectively. Cytochrome p450 enzymes (CYPs) likely mediate S-oxidation.

C. elegans P450 CYP-35C1 = assay: CYPce assay: viability of yeast expressing CYP-35C1 vs empty vector; assay type: cell-based; conditions: yeast expressing CYP-35C1 vs empty vector yeast; dose-response
From the text: as §3
CYPce (pronounced sip-sea) is an acronym for the heterologous expression of CYPs in S. cerevisiae for the purpose of identifying P450s that can bioactivate small molecules into lethal products that may or may not be reactive. The CYPce assay relies on culturing a single strain of yeast (S. cerevisiae) (or any convenient cell type in other embodiments) that expresses a single P450 enzyme (or any other small molecule modifying enzyme in other embodiments) from a single targeted organism (FIG. 2).
(§4) With that single strain, a library of small molecules are screened for those that can be bioconverted by the heterologously-expressed enzyme into a product that kills the cells expressing the enzyme. As set out herein, the growth of cells was measured, for example, by a variety of means, including optical density.

[1] = tested on: cytochrome P450s in C. elegans and diverse PPN species; assay: HPLC of cyproside-3 parent and metabolites in whole worms with pan-P450 inhibitor 1-ABT; assay type: in vivo
From the text: (§5) FIGS. A-A′″ show HPLC chromatograms with cyproside-3 (abbreviated cypros-3) unmodified parent molecule (P) and metabolite (M1-M5) peaks indicated. MP1 is a cyproside-3 metabolite uniquely produced in P. penetrans. Y-axis indicates absorbance wavelength in nm. FIGS. B-B′″ show quantification of unmodified cyproside-3 parent (P) and metabolite peaks from A-A′″. Error bars indicate SEM, p-values calculated using unpaired t-test. FIGS. C-C′″ show the proportion mobile worms relative to DMSO solvent controls after 72-hour exposure to 20 μM cyproside-3 (C. elegans) or 60 μM cyproside-3 (all other species). P-values calculated using unpaired t-test.
(§6) Using the pan-P450 inhibitor (1-ABT), cyproside-3's metabolism was inhibited in vivo (FIGS. 11A and 11B).

[2] = tested on: C. elegans and diverse PPN species; assay: Worm mobility after cyproside-3 exposure with 1-ABT; assay type: in vivo; conditions: 72-hour exposure to 20 μM cyproside-3 (C. elegans) or 60 μM cyproside-3 (all other species)
From the text: as §5, §6

[3] = tested on: diverse nematode species (non-parasitic and plant parasitic species); assay: Dose-response analysis on diverse nematode species (FIG. 10); assay type: in vivo; conditions: dose-response relative to solvent control
From the text: (§7) Dose-response analysis of cyproside-3 and tioxazafen on diverse nematode species and off-target systems including human cells (HEK293 and HepG2), fungi (Saccharomyces cerevisiae and Candida albicans) and plant beneficial rhizobacteria (Pseudomonas simiae WCS417 and Pseudomonas defensor WCS374). The activity of the compound relative to the solvent control in each assay is indicated by the gray coded scale.

CYP-35D1 = biological target: T1, CYP-35D1 (Caenorhabditis elegans, UniProt O45364); assay: HPLC / LCMS analysis of cyproside-3 metabolites, CYP-35D1; assay type: in vitro ADME, C. elegans; conditions: lysates of yeast after treatment with 100 μM cyproside-3
T1 construct: expressed in transfected cells; host or cells: Saccharomyces cerevisiae (yeast), expression vector vs empty vector
T1 sequence (O45364 1-499): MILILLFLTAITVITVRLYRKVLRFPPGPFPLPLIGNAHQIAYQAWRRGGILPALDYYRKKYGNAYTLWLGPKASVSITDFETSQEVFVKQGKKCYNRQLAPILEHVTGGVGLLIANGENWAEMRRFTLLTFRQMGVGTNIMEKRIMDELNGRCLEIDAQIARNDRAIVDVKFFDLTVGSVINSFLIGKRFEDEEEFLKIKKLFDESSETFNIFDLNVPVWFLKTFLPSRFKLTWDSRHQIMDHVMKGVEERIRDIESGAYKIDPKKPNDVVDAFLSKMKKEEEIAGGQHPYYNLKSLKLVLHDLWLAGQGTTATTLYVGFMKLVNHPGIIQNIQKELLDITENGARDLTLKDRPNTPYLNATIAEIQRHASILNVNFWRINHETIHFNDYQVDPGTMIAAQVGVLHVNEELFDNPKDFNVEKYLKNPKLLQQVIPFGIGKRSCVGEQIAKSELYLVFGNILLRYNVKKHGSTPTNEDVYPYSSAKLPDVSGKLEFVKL
From the text: (§8) In this condition cyproside-3 is not metabolized into a lethal product and yeast are viable. […] CYP-35D1 is capable of metabolizing cyproside-3 into an active metabolite which leads to reduced viability in the yeast. […] Viability relative to untreated controls is indicated by the gray coded scale. […] AUC is the area under the curve, error bars indicate SEM. The p-values were obtained from unpaired two-tailed Student's t-tests comparing the means of the empty vector control and CYP-35D1 expressing yeast. […] Peaks corresponding to the unmodified cyproside-3 and the three cyproside-3 metabolites visible using our HPLC-DAD system (M1, M2 and M3) are indicated.
Cytochrome P450 enzymes (CYPs) catalyze the S-oxidation of cyproside-3 which produces an electrophilic sulfoxide metabolite. This sulfoxide metabolite reacts with glutathione (GSH) and is further processed to γ-Glutamyl-Cysteine (γ-Glu-Cys), Cysteinylglycine (Cys-Gly) and cysteine (Cys) conjugates.

C. elegans P450 CYP-35D1 = biological target: T2, C. elegans P450 CYP-35D1 (Caenorhabditis elegans, UniProt O45364); assay: CYPce assay: viability of yeast expressing CYP-35D1 vs empty vector; assay type: cell-based; conditions: yeast expressing CYP-35D1 vs empty vector yeast; dose-response
T2 construct: expressed in transfected cells; host or cells: Saccharomyces cerevisiae (yeast), expression vector vs empty vector
T2 sequence (O45364 1-499): T1 sequence (O45364 1-499)
From the text: as §8
CYPce (pronounced sip-sea) is an acronym for the heterologous expression of CYPs in S. cerevisiae for the purpose of identifying P450s that can bioactivate small molecules into lethal products that may or may not be reactive. […]
as §4

Meloidogyne incognita = assay: Soil-based tomato root infection assay; assay type: in vivo; conditions: 6 weeks of infection in soil drenched with chemical
From the text: Cyprosides 3-2, 3-3, and 3-4 are structural analogs of cyproside-3. […] All error bars represent SEM, p-values calculated using an unpaired t test vs. solvent controls. […] Cyprosides 3-7, 3-12, 3-25, and 3-26 are structural analogs of cyproside-3. The other data points represent negative (water, DMSO) and positive (fluopyram, tioxazafen) controls. All error bars represent SEM.
There were no significant adverse effects on plant growth by the cyproside-3s as evident by the resulting root mass (FIG. 12C).

[4] = tested on: human cells (HEK293 and HepG2), fungi (Saccharomyces cerevisiae and Candida albicans) and plant beneficial rhizobacteria (Pseudomonas simiae WCS417 and …); assay: Dose-response analysis on off-target systems (FIG. 10); assay type: cell-based; conditions: HEK293, HepG2, S. cerevisiae, C. albicans, P. simiae WCS417, P. defensor WCS374; relative to solvent control
From the text: as §7

SMILES | yeast killing dependent on Mi-CYP4731A3 (M. incognita CYP4731A3) | metabolism by Mi-CYP4731A3 in yeast (HPLC) (Mi-CYP4731A3) | nature of product of metabolism by CYP-35C1 (LCMS and NMR) (CYP-35C1) | metabolism by CYP-35C1 in yeast (HPLC) (CYP-35C1; 100 μM) | yeast killing dependent on CYP-35C1 (C. elegans P450 CYP-35C1) | effect of 1-ABT on cyproside-3's metabolism in vivo [1] | effect of 1-ABT on cyproside-3's effects on the worms (mobility) [2] | phylogenetic activity profile: activity on nematode species [3] | metabolism by CYP-35D1 (HPLC) (CYP-35D1) | yeast killing dependent on CYP-35D1 (C. elegans P450 CYP-35D1) | control of root infection by M. incognita (eggs per milligram of tomato root tissue) (Meloidogyne incognita) | activity against non-targeted cells and organisms [4]
Clc1ccc(-c2cn3ccsc3n2)cc1 [selectivin-A, 6-(4-chlorophenyl)imidazo[2,1-b]thiazole] | kills yeast in a Mi-CYP4731A3-dependent manner | metabolized by Mi-CYP4731A3 in yeast | metabolized by CYP-35C1 into a reactive lethal product | metabolized by CYP-35C1 in yeast | kills yeast in a manner dependent on the C. elegans P450 CYP-35C1 | – | – | – | – | – | – | –
Nn1nnc2ccccc21 [Cyproside 1-ABT, reference compound] | – | – | – | – | – | inhibited | inhibited cyproside-3's effects on the worms | – | – | – | – | –
CCSc1nnc(-c2ccc(Cl)cc2)o1 [cyproside-3, 2-(4-chlorophenyl)-5-(ethylthio)-1,3,4-oxadiazole] | can kill yeast in a Mi-CYP4731A3-dependent manner | metabolized by Mi-CYP4731A3 in yeast | – | – | – | – | – | high selectivity for all nematode species tested; also recorded: broad-spectrum activity in plant-parasitic nematodes | metabolized by CYP-35D1 into a reactive product | killed yeast in a manner dependent on C. elegans P450 CYP-35D1 | demonstrated activity | little-to-no activity against non-targeted cells and organisms
